Data taken from patent publication US8436004B2, “Bicycloaniline derivative” (MSD K.K., priority 2007, dated 2013).
Structures can show the parent of a compound that is named as a salt.

Legend:
[1] = system: Cdc2 (Cdk1) tyrosine 15-phosphorylation in NCI-H1299 cells; experiment: Cdc2 (Cdk1) tyrosine 15-phosphorylation-inhibitory effect in camptothecin-treated NCI-H1299 cells (ELISA); type: cell-based; settings: Homo sapiens; NCI-H1299, camptothecin 200 nM 16 hours, then test compound + nocodazole 8 hours; read-out: Cdc2-Y15 Phosphorylation-Inhibitory Effect (H1299, + camptothecin) (EC50)
Source text: Pharmacological Test 2 (Method of Determining Drug Potency with Cells (Cdc2 (Cdk1) Tyrosine 15-Phosphorylation-Inhibitory Effect))
Fetal bovine serum (FBS) was obtained from Morgate; media RPMI1640 and DMEM were from Invitrogen; camptothecin was from Sigma; gemcitabine was from Nippon Eli Lilly; nocodazole and protease inhibitor cocktail were from Sigma; rabbit anti-Cdc2 antibody and mouse anti-Cdc2 antibody were from Santa Cruz Biotechnology; rabbit anti-tyrosine 15-phosphorylated Cdc2 antibody and horseradish peroxidase-labeled anti-mouse IgG antibody were from Cell Signaling Technology; sure blue reserve TMB peroxidase substrate was from Kirkegaard and Perry Laboratories.
Human non-small cell lung cancer cells (NCI-H1299) and human colon cancer cells (WiDr) were obtained from American Type Culture Collection (ATCC).
In the method of using NCI-H1299 cells, the cells were suspended in a medium of 10% FBS-added RPMI1640, and the cell suspension was applied to a 96-well Nunclondelta-processed plastic plate (bought from Nunc), in an amount of 2000 cells/100 μL/well, in which the cells were incubated overnight in 5% CO2-95% air at 37° C. Camptothecin was dissolved in dimethylsulfoxide (DMSO), and diluted with a medium of 10% FBS-added RPMI1640, and then this was applied to the plate on which the cells had been previously sowed, in an amount of 50 μL/well in such a manner that the final concentration of camptothecin could be 200 nM. Then, the cells were incubated for 16 hours at 37° C. in 5% CO2-95% air. The test compound was stepwise diluted with DMSO, then diluted with 4000 nM nocodazole-containing, 10% FBS-added RPMI1640, and applied to the plate on which the camptothecin-treated cells had been sowed, in an amount of 50 μL/well. The cells were incubated for 8 hours at 37° C. in 5% CO2-95% air, then the culture was removed, and a cytolytic buffer was added to the plate in an amount of 100 μL/well, shaken at 4° C. for 2 hours, then frozen at −80° C., and thawed to give a cell solution. Cdc2 and tyrosine 15-phosphorylated Cdc2 in the cell solution were determined through enzyme-linked immunosorbent assay (ELISA), and the ratio of tyrosine 15-phosphorylated Cdc2 to Cdc2 was calculated to obtain the 50% phosphorylation-inhibitory concentration of the test compound to the cells (EC50, nM). The cytolytic buffer used herein is an aqueous solution containing 20 mM Hepes (pH 7.5), 150 mM sodium chloride, 1 mM disodium ethylenediaminetetraacetate, 0.1% polyoxyethylene (10) octylphenyl ether, 1% protease inhibitor cocktail, 1 mM dithiothreitol, 2 mM sodium orthovanadate, 10 mM sodium fluoride and 10 mM glycerol diphosphate. Cdc2 was determined through ELISA as follows: A rabbit anti-Cdc2 antibody solution, which had been diluted 200-fold with 50 mM carbonate-bicarbonate buffer (pH 9.6), was applied to a 96-well maxisorpimmuno plate (bought from Nunc), in an amount of 50 μL/well, and statically kept overnight at 4° C. so as to fix the antibody on the plate. Next, this was washed three times with phosphate-buffered physiological saline (PBS), and 5% bovine serum albumin-containing PBS (5% BSA/PBS) was added thereto in an amount of 300 μL/well, and statically kept at room temperature for 2 hours, and then again washed three times with PBS. A mouse anti-Cdc2 antibody solution that had been diluted 100-fold with 0.05% polyoxyethylene sorbitan monolaurate and 1% BSA-containing Tris-HCl-buffered physiological saline (1% BSA/TBS-T) was added to it in an amount of 50 μL/well, and the cell solution was added thereto in an amount of 5 μL/well and statically kept overnight at 4° C. Next, this was washed three times with 0.05% polyoxyethylene sorbitan monolaurate and 0.1% BSA-containing Tris-HCl-buffered physiological saline (0.1% BSA/TBS-T), and then a horseradish peroxidase-labeled anti-mouse IgG antibody solution that had been diluted 2000-fold with 1% BSA/TBS-T was added thereto in an amount of 70 μL/well, and statically kept at room temperature for 3 hours. […]

[2] = system: Human colon cancer cells WiDr; experiment: Tumor growth inhibitory effect, WiDr subcutaneous xenograft in nude rats; type: in vivo, F344/N Jcl-rnu nude rats; settings: gemcitabine 5 mg/kg i.v. days 0, 7, 14, Example 1 15 mg/kg oral days 1, 8, 15, n=5
Description: Pharmacological Test 4 (Tumor Growth Inhibitory Effect)
Human colon cancer cells WiDr (obtained from ATCC) were implanted into the subcutaneous area of the back of F344/N Jcl-rnu nude rats. 12 days after the implantation, 5 mg/kg of gemcitabine (Gemzar, from Eli Lily) was intravenously administered to them; and after 24 hours, a test compound suspended in a solvent (0.5% methyl cellulose) was orally administered thereto. This was repeated once a week for 3 weeks. The tumor volume (0.5×major diameter×(minor diameter)^2) was measured on days 0, 3, 6, 10, 13, 17, 20, 24 and 27 (the first gemcitabine administration is on day 0). The relative tumor volume was calculated, based on the tumor volume on day 0, as 1. The tumor growth rate (% T/C) was obtained according to the formulae mentioned below.
In case where the tumor volume change from day 0 in the test compound administration group is more than 0 (>0): % T/C=(tumor volume change in the test compound group on days 3, 6, 10, 13, 17, 20, 24 and 27/tumor volume change in the control group on days 3, 6, 10, 13, 17, 20, 24 and 27)×100. In case where the tumor volume change from day 0 in the test compound administration group is less than 0 (<0): % T/C=(tumor volume change in the test compound group on days 3, 6, 10, 13, 17, 20, 24 and 27/tumor volume […] in the test compound group on day 0)×100.
Gemcitabine was administered on days 0, 7 and 14. The compound of Example 1 was administered on days 1, 8 and 15.

Structure (SMILES)	EC50 [1] [µM]	% T/C day 3 ([2]; day 3) [%]	% T/C day 6 ([2]; day 6) [%]	% T/C day 10 ([2]; day 10) [%]	% T/C day 13 ([2]; day 13) [%]	% T/C day 17 ([2]; day 17) [%]	% T/C day 20 ([2]; day 20) [%]	% T/C day 24 ([2]; day 24) [%]	% T/C day 27 ([2]; day 27) [%]
CN1Cc2cc(Nc3ncc4c(=N)n(-c5c(Cl)cccc5Cl)c(=O)[nH]c4n3)ccc2C2(CC2)C1 [Example 1, 3-(2,6-dichlorophenyl)-4-imino-7-[(2′-methyl-2′,3′-dihydro-1′H-spiro[cyclopropane-1,4′-isoquinolin]-7′-yl)amino]-3,4-dihydropyrimido[4,5-d]pyrimidin-2(1H)-one dihydrochloride]	0.019	107	100	87	91	88	85	83	88
CN1Cc2cc(Nc3ncc4c(=N)n(-c5c(Cl)cccc5Cl)c(=O)[nH]c4n3)ccc2C(C)(C)C1 [Example 2, 3-(2,6-dichlorophenyl)-4-imino-7-{[2,4,4-trimethyl-1,2,3,4-tetrahydroisoquinolin-7-yl]amino}-3,4-dihydropyrimido[4,5-d]pyrimidin-2(1H)-one]	0.027								
CN1Cc2cc(Nc3ncc4c(=N)n(-c5c(Cl)cccc5Cl)c(=O)[nH]c4n3)ccc2C1(C)C [Example 7, 3-(2,6-dichlorophenyl)-4-imino-7-[(1,1,2-trimethyl-2,3-dihydro-1H-isoindol-5-yl)amino]-3,4-dihydropyrimido[4,5-d]pyrimidin-2(1H)-one]	0.017								
